Assay results published in PMC6422671 (British Journal of Clinical Pharmacology, 2019).

Assays:
serum uric acid = experiment: Serum uric acid (urate), exploratory pharmacodynamic outcome; table data mean (standard deviation); type: in vivo, healthy men; conditions: for decrease in mean serum uric acid concentration: 48 hours after dosing
Text: The primary objective of the study was to evaluate the safety and tolerability of AZD4831 in healthy volunteers.
Data are mean (standard deviation).

myeloperoxidase = system: myeloperoxidase; design: method as in E Michaëlsson et al., manuscript in preparation; conditions: in vitro, unpublished; ref E Michaëlsson et al., manuscript in preparation; cited from earlier work
[1] = system: urate anion exchanger 1 (URAT1; SLC22A12); design: method as in E Michaëlsson et al., manuscript in preparation; conditions: in vitro; ref E Michaëlsson et al., manuscript in preparation; cited from earlier work
[2] = design: method as in E Michaëlsson et al., manuscript in preparation; conditions: ref E Michaëlsson et al., manuscript in preparation; cited from earlier work

Structure (SMILES): C[C@@H](N)c1cc(Cl)ccc1Cn1c(=S)[nH]c(=O)c2[nH]ccc21 [AZD4831]
- Urate (serum uric acid; 5 mg fasted, 24 h): 335.1 (75.2) µmol L^–1
- Urate (serum uric acid; 5 mg fasted, 48 h): 293.2 (64.0) µmol L^–1
- Urate (serum uric acid; 5 mg fasted, follow up): 326.3 (84.2) µmol L^–1
- Urate (serum uric acid; 15 mg fasted, 24 h): 364.7 (35.3) µmol L^–1
- Urate (serum uric acid; 15 mg fasted, 48 h): 331.6 (30.7) µmol L^–1
- Urate (serum uric acid; 15 mg fasted, 72 h): 355.7 (25.4) µmol L^–1
- Urate (serum uric acid; 15 mg fasted, 96 h): 366.5 (25.3) µmol L^–1
- Urate (serum uric acid; 15 mg fasted, 120 h): 370.8 (40.4) µmol L^–1
- Urate (serum uric acid; 15 mg fasted, follow up): 366.3 (47.1) µmol L^–1
- Urate (serum uric acid; 45 mg fasted, 24 h): 361.7 (111.9) µmol L^–1
- Urate (serum uric acid; 45 mg fasted, 48 h): 339.8 (113.0) µmol L^–1
- Urate (serum uric acid; 45 mg fasted, 72 h): 362.1 (111.6) µmol L^–1
- Urate (serum uric acid; 45 mg fasted, 96 h): 366.3 (112.8) µmol L^–1
- Urate (serum uric acid; 45 mg fasted, 120 h): 382.6 (93.3) µmol L^–1
- Urate (serum uric acid; 45 mg fasted, follow up): 397.6 (112.6) µmol L^–1
- Urate (serum uric acid; 45 mg fed, 24 h): 296.4 (62.8) µmol L^–1
- Urate (serum uric acid; 45 mg fed, 48 h): 283.0 (57.0) µmol L^–1
- Urate (serum uric acid; 45 mg fed, 72 h): 313.2 (47.1) µmol L^–1
- Urate (serum uric acid; 45 mg fed, 96 h): 316.0 (47.3) µmol L^–1
- Urate (serum uric acid; 45 mg fed, 120 h): 316.5 (67.1) µmol L^–1
- Urate (serum uric acid; 45 mg fed, follow up): 314.0 (77.9) µmol L^–1
- Urate (serum uric acid; 135 mg fasted, 24 h): 344.3 (18.6) µmol L^–1
- Urate (serum uric acid; 135 mg fasted, 48 h): 311.3 (18.6) µmol L^–1
- Urate (serum uric acid; 135 mg fasted, 72 h): 339.2 (13.9) µmol L^–1
- Urate (serum uric acid; 135 mg fasted, 96 h): 346.2 (25.0) µmol L^–1
- Urate (serum uric acid; 135 mg fasted, 120 h): 365.9 (42.1) µmol L^–1
- Urate (serum uric acid; 135 mg fasted, follow up): 370.3 (31.4) µmol L^–1
- decrease in mean serum uric acid concentration (serum uric acid; 135 mg, 95% CI 29.15, 114.39, mean predose 383.0 (SD 47.5)): 71.77 µmol/L
- Urate (serum uric acid; 405 mg fasted, 24 h): 262.8 (65.4) µmol L^–1
- Urate (serum uric acid; 405 mg fasted, 48 h): 244.6 (51.2) µmol L^–1
- Urate (serum uric acid; 405 mg fasted, 72 h): 256.1 (44.7) µmol L^–1
- Urate (serum uric acid; 405 mg fasted, 96 h): 289.3 (46.2) µmol L^–1
- Urate (serum uric acid; 405 mg fasted, 120 h): 307.2 (50.9) µmol L^–1
- Urate (serum uric acid; 405 mg fasted, follow up): 322.2 (59.1) µmol L^–1
- decrease in mean serum uric acid concentration (serum uric acid; 405 mg, 95% CI 58.90, 109.94, mean predose 329.0 (SD 54.2)): 84.42 µmol/L
- inhibition of oxidation of xanthine and uric acid by myeloperoxidase (myeloperoxidase): inhibits
- inhibition of URAT1 uric acid transport [1]: does not inhibit
- human plasma protein binding [2]: 65%
